Experimental findings from ChEMBL document CHEMBL5104090, “Recent advances in the medicinal chemistry of carbonic anhydrase inhibitors” (Eur J Med Chem, 2021) are described below.

Data set [1] deals with T1, Carbonic anhydrase 12 (Homo sapiens, UniProt O43570). Conditions: time 6.0 hrs.
In data set [2] the target is T2, Carbonic anhydrase 2 (Homo sapiens, UniProt P00918).
Data set [3] relates to HSC-3. Briefly: cells. In kind it is functional. Conditions: Homo sapiens, time 48 hrs.
Description: Cytotoxicity against human HSC-3 cells assessed as cell growth inhibition measured after 48 hrs by MTT assay
Data set [4] deals with HSC-4. As to the kind of experiment: cells. In kind it is functional. Conditions: Homo sapiens, time 48 hrs.
Description: Cytotoxicity against human HSC-4 cells assessed as cell growth inhibition measured after 48 hrs by MTT assay
In data set [5] the test system is Ca9-22. As to the kind of experiment: cells. In kind it is functional. The conditions noted are these: Homo sapiens, time 48 hrs.
Description: Cytotoxicity against human Ca9-22 cells assessed as cell growth inhibition measured after 48 hrs by MTT assay
The subject of data set [6] is HSC-2. Briefly: cells. In kind it is functional. Conditions: Homo sapiens, time 48 hrs.
Description: Cytotoxicity against human HSC-2 cells assessed as cell growth inhibition measured after 48 hrs by MTT assay
Data set [7] has as its target T3, Carbonic anhydrase 1 (Homo sapiens, UniProt P00915).
Target sequence in this assay (P00915 2-261 limits assumed): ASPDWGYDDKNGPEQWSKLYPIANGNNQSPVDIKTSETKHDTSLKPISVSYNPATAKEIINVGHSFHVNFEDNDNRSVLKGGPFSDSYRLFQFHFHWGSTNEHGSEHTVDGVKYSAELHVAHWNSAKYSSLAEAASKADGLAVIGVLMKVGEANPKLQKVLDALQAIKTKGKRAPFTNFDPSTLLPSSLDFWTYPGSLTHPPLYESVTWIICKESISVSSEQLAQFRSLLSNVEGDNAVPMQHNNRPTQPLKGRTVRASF
Data set [8] addresses T2, Carbonic anhydrase 2. This is another data set of the same source.
Data set [9] concerns the target T4, Carbonic anhydrase 9 (Homo sapiens, UniProt Q16790).
In data set [10] the target is T3, Carbonic anhydrase 1. This is another data set of the same source.
Target sequence in this assay (P00915 whole entry): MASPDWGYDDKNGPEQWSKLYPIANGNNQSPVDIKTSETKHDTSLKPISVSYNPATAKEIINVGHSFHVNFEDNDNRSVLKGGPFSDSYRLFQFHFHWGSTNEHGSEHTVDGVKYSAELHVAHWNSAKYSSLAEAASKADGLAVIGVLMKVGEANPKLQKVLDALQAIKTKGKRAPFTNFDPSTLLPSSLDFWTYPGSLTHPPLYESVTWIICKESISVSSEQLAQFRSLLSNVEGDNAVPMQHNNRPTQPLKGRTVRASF
In data set [11] the target is T1, Carbonic anhydrase 12.
The target in data set [12] is T2, Carbonic anhydrase 2. This is another data set of the same source.
For data set [13], the target named is Carbonic anhydrase 4 (Homo sapiens, UniProt P22748).
Sequence of Carbonic anhydrase 4 (P22748 whole entry): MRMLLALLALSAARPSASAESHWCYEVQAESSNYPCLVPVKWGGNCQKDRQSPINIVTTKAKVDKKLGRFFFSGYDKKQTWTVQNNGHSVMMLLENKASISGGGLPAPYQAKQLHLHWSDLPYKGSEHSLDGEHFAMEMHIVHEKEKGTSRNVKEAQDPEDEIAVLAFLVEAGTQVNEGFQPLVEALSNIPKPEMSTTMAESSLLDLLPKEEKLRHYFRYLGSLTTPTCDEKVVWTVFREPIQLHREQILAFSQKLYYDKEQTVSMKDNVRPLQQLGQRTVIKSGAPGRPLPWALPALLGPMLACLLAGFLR
The target in data set [14] is T3, Carbonic anhydrase 1. This is another data set of the same source.
Target sequence in this assay (P00915 whole entry): as the sequence (P00915 whole entry) above
The target in data set [15] is T4, Carbonic anhydrase 9. This is another data set of the same source.
The target of data set [16] is T4, Carbonic anhydrase 9. This is another data set of the same source.
Data set [17] deals with SH-SY5Y. Briefly: cells. The class given is functional, cell-based. The conditions noted are these: Homo sapiens, 48 h.
Description: Cytotoxicity against human SH-SY5Y cells assessed as cell growth inhibition measured after 48 hrs by MTT assay
For data set [18], the system named is HT-1080. Briefly: cells. The conditions noted are these: Homo sapiens, HT-1080, 48 h. In kind it is functional, cell-based.
Description: Cytotoxicity against human HT-1080 cells assessed as cell growth inhibition measured after 48 hrs by MTT assay
Data set [19] relates to MCF7. As to the kind of experiment: cells. In kind it is functional, cell-based. Conditions: Homo sapiens, MCF7, 48 h.
Description: Cytotoxicity against human MCF7 cells assessed as cell growth inhibition measured after 48 hrs by MTT assay
In data set [20] the target is Carbonic anhydrase 7 (Homo sapiens, UniProt P43166).
Sequence of Carbonic anhydrase 7 (P43166 whole entry): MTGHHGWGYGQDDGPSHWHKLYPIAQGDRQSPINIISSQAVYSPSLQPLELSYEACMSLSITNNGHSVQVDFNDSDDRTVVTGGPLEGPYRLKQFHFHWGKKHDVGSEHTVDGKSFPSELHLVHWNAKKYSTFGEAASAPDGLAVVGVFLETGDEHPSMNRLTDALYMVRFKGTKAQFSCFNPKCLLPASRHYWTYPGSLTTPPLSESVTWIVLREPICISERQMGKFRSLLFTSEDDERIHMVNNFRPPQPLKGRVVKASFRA
The target in data set [21] is T2, Carbonic anhydrase 2. This is another data set of the same source.
For data set [22], the target named is T3, Carbonic anhydrase 1. This is another data set of the same source.
Target sequence in this assay (P00915 whole entry): as the sequence (P00915 whole entry) above
Data set [23] concerns the target T2, Carbonic anhydrase 2. This is another data set of the same source.
For data set [24], the target named is T1, Carbonic anhydrase 12. This is another data set of the same source.
Data set [25] in a line: in vitro. Conditions: human, corneal epithelial cell.
Description: Cytotoxicity against human Corneal epithelial cell assessed as cell growth inhibition at 1 % measured after 96 hrs by MTT assay relative to control
Data set [26] addresses T3, Carbonic anhydrase 1. The source holds these as a separate data set.
Target sequence in this assay (P00915 whole entry): as above
For data set [27], the target named is T1, Carbonic anhydrase 12. The source holds these as a separate data set.

T1 sequence (O43570 whole entry): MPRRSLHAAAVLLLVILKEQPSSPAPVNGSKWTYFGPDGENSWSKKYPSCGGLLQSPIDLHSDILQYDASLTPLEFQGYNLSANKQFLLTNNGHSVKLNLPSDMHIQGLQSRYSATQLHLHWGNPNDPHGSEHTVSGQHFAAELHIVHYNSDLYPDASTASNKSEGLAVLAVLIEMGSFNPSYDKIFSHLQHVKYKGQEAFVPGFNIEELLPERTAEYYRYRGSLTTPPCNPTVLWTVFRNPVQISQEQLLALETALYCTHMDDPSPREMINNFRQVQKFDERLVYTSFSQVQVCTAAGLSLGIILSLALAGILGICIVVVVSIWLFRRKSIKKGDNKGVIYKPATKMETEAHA

For the compound `Nc1ccc2c(c1)C=CCS(=O)(=O)O2`, in data set [1], the Kis turned out to be 0.64 µM.
In turn, `O=C1/C(=C\c2ccc(O)c(CN3CCN(c4ccccc4)CC3)c2)Cc2ccccc21` had a Ki in data set [2] of 51.1 nM.
Turning to `COc1ccc(C2CC(c3ccc(Cl)cc3)=NN2c2ccc(S(N)(=O)=O)cc2)cc1OC` (stereo unspecified), the CC50 in data set [3], in data set [4], in [5] and in data set [6] was 15000 nM throughout.
On to `NS(=O)(=O)c1ccc(C(=O)NN2C(=O)c3nccnc3C2=O)cc1`, for which, in [7], the Kis amounted to 84.3 nM.
Regarding `NS(=O)(=O)c1ccc(N/N=C2\C(=O)Nc3ccccc32)cc1`, the Ki was determined as 6.5 nM in data set [8], 21.4 nM in data set [9], 90.2 nM in [10] and 34.3 nM in [11].
On to `COc1ccccc1N1CCN(Cc2cc(/C=C3/Cc4ccccc4C3=O)ccc2O)CC1`, for which the Ki in data set [2] came to 51.1 nM.
On to `COc1ccc(C2CC(c3ccc(F)cc3)=NN2c2ccc(S(N)(=O)=O)cc2)c(OC)c1` (stereo unspecified), for which the CC50 in data set [3], in [4], in data set [5] and in data set [6] was 15000 nM each time.
Turning to `NS(=O)(=O)c1ccc(N/C=C/C(=O)c2ccc(Br)cc2)cc1`, the Ki came out at 0.48 nM in data set [12], 6.5 nM in data set [13], 8500 nM in [14] and 0.21 nM in [15].
As for `CC(C)(C)c1ccc2c(c1)C(=O)N(NC(=O)c1ccc(S(N)(=O)=O)cc1)C2=O`, the Kis in data set [7] worked out at 84.3 nM; in [16], 3 nM.
For `Cc1ccc2c(c1)C(=O)N(NC(=O)c1ccc(S(N)(=O)=O)cc1)C2=O` the same measures were 84.3 nM and 3 nM.
Regarding `O=S1(=O)C=Cc2cc(-c3nnnn3-c3ccc(F)c(Cl)c3)ccc2O1`, the IC50 was 18400 nM in data set [17], 7900 nM in [18] and 1800 nM in data set [19].
With `O=[N+]([O-])c1ccc2c(c1)C=CCS(=O)(=O)O2`, the Kis in data set [1] came out at 0.64 µM.
`NS(=O)(=O)c1ccc(C(=O)NN2C(=O)C3CC=CCC3C2=O)cc1` (stereo unspecified) returned a Kis in [7] of 84.3 nM.
Take `NS(=O)(=O)c1ccc(N/C=C/C(=O)c2ccc(F)cc2)cc1`: the Ki in data set [12] came to 0.48 nM; in [13] it was 6.5 nM; in data set [14], 9300 nM; in [15] it was 0.21 nM.
On to `O=S1(=O)C=Cc2cc(-c3nnnn3-c3ccccc3)ccc2O1`, for which the IC50 in [17] was 18400 nM; in [18] it was 7900 nM; in data set [19], 1800 nM. The results for the Ki in data set [9] and in [11] were 6.9 nM and 5.4 nM, respectively.
Take `COc1ccc(C2CC(c3ccccc3)=NN2c2ccc(S(N)(=O)=O)cc2)cc1OC` (stereo unspecified): the CC50 in data set [3], in data set [4], in data set [5] and in [6] was 15000 nM each time.
In the case of `COc1cc([SeH])cc(OC)c1OC`, the Ki was > 50000 nM in [12], > 50000 nM in data set [20], > 50000 nM in data set [14] and 180 nM in data set [15].
For `CS(=O)(=O)Cc1cc(O)c(O)c(Br)c1Br`, the Ki in data set [2] was 42.8 nM.
Consider `NS(=O)(=O)c1ccc(C(=O)N[C@@H]2O[C@H](CO)[C@@H](O)[C@H](O)[C@H]2O)cc1`, for which the affinity in [21], expressed as Ki, was 0.009 nM.
`COc1ccc(C2CC(c3ccc(F)cc3)=NN2c2ccc(S(N)(=O)=O)cc2)cc1OC` (stereo unspecified): the CC50 in data set [3], in data set [4], in data set [5] and in [6] was 15000 nM in each case.
As for `CN1CCN(CN2C(=O)C(=O)c3ccccc32)CC1`, the Ki in [22] was determined as 8.57 nM; in data set [23] it was 5.02 nM.
On to `NS(=O)(=O)c1ccc(N/C=C/C(=O)c2ccc([N+](=O)[O-])cc2)cc1`, for which the inhibition constant Ki in data set [13] was 6.5 nM; in data set [14], > 10000 nM; in data set [15] it was 0.21 nM.
With `COc1cccc(/C=C2/SC(=O)N(CC(=O)O)C2=O)c1`, in data set [24], the Kis is 0.3 µM. Further, the Ki in data set [9] and in [10] was > 100000 nM in each case.
For the compound `O=C1C(=O)N(CN2CCOCC2)c2ccccc21`, the Ki amounted to 8.57 nM in data set [22] and 5.02 nM in data set [23].
In the case of `COC(=O)[C@H]1O[C@@H](O)[C@H](O)[C@@H](O)[C@@]1(O)S(=O)(=O)Nc1ccccc1C(N)=O`, the Ki in data set [21] was 0.009 nM. In [25], this compound gave an inhibition at 96 h, 1 % of 74%. The same compound showed an IC50 in data set [26] of 1800 nM.
Take `NS(=O)(=O)c1ccc(N=C2C(=O)Nc3ccccc32)cc1`: the values for the Ki in data set [8], in [9] and in data set [11] were 3 nM, 13.9 nM and 34.3 nM, respectively.
Turning to `COc1ccc(C2CC(c3ccc(Br)cc3)=NN2c2ccc(S(N)(=O)=O)cc2)c(OC)c1` (stereo unspecified), the half-maximal cytotoxic concentration (CC50) in data set [3], in data set [4], in [5] and in [6] was 15000 nM each time.
With `O=c1c2ccccc2nc(SCCN2CCCCC2)n1CCc1ccccc1`, the Ki stood at 14.2 nM in data set [12], 17.2 nM in data set [27], 229 nM in data set [14] and 19.3 nM in [15].
In the case of `NS(=O)(=O)c1ccc(NCC(=O)N/N=C2\C(=O)N(Cc3ccccc3)c3ccccc32)cc1`, the Ki is 3 nM in data set [8], 16.4 nM in data set [9] and 34.3 nM in [11].
The compound `O=C1/C(=C\c2ccc(O)c(CN3CCN(c4ccc(F)cc4)CC3)c2)Cc2ccccc21` displayed a Ki in data set [2] of 51.1 nM.
`NS(=O)(=O)c1ccc(C(=O)N[C@@H]2OC[C@@H](O)[C@H](O)[C@H]2O)cc1`: the inhibition at 96 h, 1 % in data set [25] is 74%.
On to `O=S1(=O)CC=Cc2cc(-n3cc(-c4ccc(C(F)(F)F)cc4)nn3)ccc2O1`, for which the Kis in data set [1] worked out at 0.64 µM.
In data set [21], `C[C@@H]1O[C@H](NC(=O)c2ccc(S(N)(=O)=O)cc2)[C@H](O)[C@H](O)[C@H]1O` displayed a Ki of 0.009 nM. In data set [26], the IC50 came out at 1800 nM.
In the case of `NS(=O)(=O)c1ccc(N/C=C/C(=O)c2ccc3ccccc3c2)cc1`, the Ki is 0.48 nM in data set [12], 6.5 nM in data set [13], > 10000 nM in [14] and 0.21 nM in data set [15].
Consider `COc1ccc(C2CC(c3ccc(Cl)cc3)=NN2c2ccc(S(N)(=O)=O)cc2)c(OC)c1` (stereo unspecified), for which the CC50 in data set [3], in [4], in data set [5] and in data set [6] was 15000 nM each time.
In turn, `NS(=O)(=O)c1ccc(C(=O)N[C@@H]2O[C@H](CO)[C@@H](O)[C@H](O)[C@@H]2O)cc1` came in with a Ki in [21] of 0.009 nM. Besides, the inhibition at 96 h, 1 % in [25] is 74%.
In [12], `NS(=O)(=O)c1ccc(CCn2c(SCC(=O)Nc3ccc(Cl)cc3)nc3ccccc3c2=O)cc1` had a Ki of 25.4 nM.
In turn, `O=C(O)CN1C(=O)S/C(=C/c2ccc(Cl)cc2)C1=O` came in with a Kis in data set [24] of 0.3 µM. In addition, the Ki in data set [9] was 3100 nM; in data set [10] it was > 100000 nM.
In data set [21], `NS(=O)(=O)c1ccc(C(=O)N[C@@H]2O[C@H](CO)[C@H](O)[C@H](O)[C@H]2O)cc1` gave a Ki of 0.009 nM.
For the compound `O=C1/C(=C\c2ccc(O)c(CN3CCN(c4ccccc4F)CC3)c2)Cc2ccccc21`, the affinity in [2], expressed as Ki, was 51.1 nM.
In the case of `COc1ccc(C2CC(c3ccccc3)=NN2c2ccc(S(N)(=O)=O)cc2)c(OC)c1` (stereo unspecified), the CC50 in data set [3], in data set [4], in data set [5] and in data set [6] was 15000 nM each time.
Consider `O=S1(=O)C=Cc2cc(-n3cc(-c4ccc(Cl)cc4)nn3)ccc2O1`, for which the IC50 in data set [17] is 18400 nM; in [18], 7900 nM; in [19] it was 1800 nM. The Ki in [9] was 6.9 nM; in [11], 5.4 nM.
`O=C1/C(=C\c2ccc(O)c(CN3CCN(Cc4ccccc4)CC3)c2)Cc2ccccc21` gave a Ki in [2] of 51.1 nM.
In data set [2], `CS(=O)(=O)Cc1c(Br)c(O)c(O)c(Br)c1Br` gave a Ki of 42.8 nM.

The term Ki denotes a measure of affinity in units of concentration, obtained from inhibition or displacement. Usually CC50 stands for the concentration giving 50% cytotoxicity. Low values mean greater toxicity to the cells, high ones lower toxicity to the cells. One may read the IC50 as the concentration at which inhibition is half-maximal. High values mean a need for much substance, low ones inhibition by little substance. As usually defined, the inhibition is the relative decrease from the control value, in per cent. Low readings indicate a response near the control, high ones a response far below the control.
